Assay results reported in ChEMBL document CHEMBL2074397, “Molecular cloning and functional expression of a multispecific organic anion transporter from human kidney” (Am J Physiol, 1999).

Tests used:
[1] = biological target: T1, Solute carrier family 22 member 6 (SLC22A6) (Homo sapiens, UniProt Q4U2R8); assay: TP_TRANSPORTER: inhibition of PAH uptake (PAH: 2 uM, Furosemide: 2000 uM) in Xenopus laevis oocytes; format: functional, cell-based, Oocyte; parameters: scale not given: the % may be the effect or the level left; conditions: Xenopus laevis oocytes expressing SLC22A6, probe PAH, read-out: Activity
T1 sequence (Q4U2R8 whole entry): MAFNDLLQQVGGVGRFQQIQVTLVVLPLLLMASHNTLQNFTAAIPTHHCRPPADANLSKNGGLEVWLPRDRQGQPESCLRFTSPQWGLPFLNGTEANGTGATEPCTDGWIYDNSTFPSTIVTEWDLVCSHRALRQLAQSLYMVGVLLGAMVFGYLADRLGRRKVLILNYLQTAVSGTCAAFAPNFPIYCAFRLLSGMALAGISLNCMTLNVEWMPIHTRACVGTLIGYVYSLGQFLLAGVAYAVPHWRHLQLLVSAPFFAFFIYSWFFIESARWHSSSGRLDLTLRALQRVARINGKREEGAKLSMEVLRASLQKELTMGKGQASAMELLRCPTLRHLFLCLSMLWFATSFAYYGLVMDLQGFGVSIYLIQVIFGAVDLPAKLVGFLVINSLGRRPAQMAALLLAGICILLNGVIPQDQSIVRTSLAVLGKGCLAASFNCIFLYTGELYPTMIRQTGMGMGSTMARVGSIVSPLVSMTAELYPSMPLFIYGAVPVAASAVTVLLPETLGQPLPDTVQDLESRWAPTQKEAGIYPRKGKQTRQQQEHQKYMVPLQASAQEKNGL

[2] = biological target: T2, Solute carrier family 22 member 6 (Homo sapiens, UniProt Q4U2R8); assay: TP_TRANSPORTER: inhibition of PAH uptake (PAH: 2 uM, Urate: 2000 uM) in Xenopus laevis oocytes; format: functional, cell-based; conditions: oocyte
T2 sequence (Q4U2R8 whole entry): T1 sequence (Q4U2R8 whole entry)

[3] = biological target: T2, Solute carrier family 22 member 6; assay: TP_TRANSPORTER: inhibition of PAH uptake (PAH: 2 uM, Indomethacin: 2000 uM) in Xenopus laevis oocytes; format: functional, cell-based; parameters: scale not given: the % may be the effect or the level left; conditions: oocyte

NS(=O)(=O)c1cc(C(=O)O)c(NCc2ccco2)cc1Cl [FUROSEMIDE]
activity at 2000 µM [1]: < 0%

O=c1[nH]c(=O)c2[nH]c(=O)[nH]c2[nH]1 [URIC ACID]
Activity [2]: inhibitor [(at a rough estimate) 5 % of control]

COc1ccc2c(c1)c(CC(=O)O)c(C)n2C(=O)c1ccc(Cl)cc1 [INDOMETHACIN]
Activity [3]: < 0%
